The source of these data is US10822325B2, “Human GLUT5 specific inhibitors and methods of treatment” (UNM RAINFOREST INNOVATIONS, priority 2015, dated 2020).

The term IC50 denotes the concentration that gives 50% inhibition.

Molecules are shown by their SMILES. “Also recorded” adds a separate entry of the source.

This assay deals with T1, human GLUT5 (Homo sapiens, UniProt P22732).
T1 construct: Full length DNA was subcloned into pFastBac1 (Life Technologies) vector with a N-terminal hexahistidine tag; hexahistidine (N); made in house; host or cells: Sf21 insect cells (baculovirus, pFastBac1)
T1 sequence (P22732 1-501): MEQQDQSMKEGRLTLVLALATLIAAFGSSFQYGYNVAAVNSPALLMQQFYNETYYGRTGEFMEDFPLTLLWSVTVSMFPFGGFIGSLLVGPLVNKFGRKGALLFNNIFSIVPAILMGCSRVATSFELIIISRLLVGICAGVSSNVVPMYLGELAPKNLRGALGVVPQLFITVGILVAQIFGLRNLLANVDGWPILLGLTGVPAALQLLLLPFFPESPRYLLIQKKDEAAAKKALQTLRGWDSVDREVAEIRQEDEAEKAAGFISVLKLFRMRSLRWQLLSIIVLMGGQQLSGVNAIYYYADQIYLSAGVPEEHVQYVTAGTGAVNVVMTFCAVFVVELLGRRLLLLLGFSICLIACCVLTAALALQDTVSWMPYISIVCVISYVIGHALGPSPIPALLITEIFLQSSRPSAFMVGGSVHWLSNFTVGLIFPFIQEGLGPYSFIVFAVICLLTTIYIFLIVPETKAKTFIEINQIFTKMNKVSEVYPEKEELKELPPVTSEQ
In words: Fructose entrance counter-flow transport in GLUT5 proteoliposomes. The class given is biochemical. The settings on record: for effect on GLUT5 fructose transport: 2 mM compound, one minute. The protocol:
cDNAs of GLUT1, 3, 4 and 5 were purchased from Open Biosystems (GE Healthcare). cDNAs of GLUT2 was a gift from Prof. Graeme Bell at University of Chicago. Full length DNA was subcloned into pFastBac1 (Life Technologies) vector with a N-terminal hexahistidine tag. Bacmids were generated in DH10Bac E. coli cells (Life Technologies). Baculoviruses were produced using Cellfectin II Reagent and amplified in Sf21 insect cells (Life Technologies). Cells were maintained at 26° C., and P1 (10^6 pfu/mL) was collected from infected cells after 72 hours. SF21 cells were propagated in HyClone SFX-Insect media (GE Healthcare), supplemented with 5% fetal bovine serum (Biowest), 4.8 mM glutamine, antibiotics (100 units/mL Penicillin G and 100 μg/mL streptomycin sulfate) and amphotericin B (2.5 μg/mL). For recombinant protein expression, SF21 cells in suspension culture at 2×10^6 cells/ml were infected with P3 viral stock (10^8 pfu/mL), at an MOI of 1.0 pfu/cell. Four days after viral infection, cells from 1 L culture were collected by centrifugation at 2,000 g and 25 °C. The cell pellet was resuspended in 120 mL of 50 mM sodium phosphate (NaPi) (pH 7.5), 5% (v/v) glycerol, 200 mM sodium chloride (buffer A), with protease inhibitors (1 mM AEBSF, 10 μM E-64, 10 μM pepstatin A, 1 μM Aprotinin, 20 μM Bestatin, 20 μM Leupeptin), at 4° C., and disrupted by sonication (Branson Ultrasonic). n-Dodecyl-β-D-maltopyranoside (DDM, EMD chemicals) was added to a final concentration of 1% (w/v) in the broken cell solution, and the mixture was incubated at 4° C. with stirring, for 4 hours. The solubilized protein solution was clarified by ultracentrifugation at 200,000 g and 4° C. for 1 hour, and the supernatant was loaded onto the Ni-NTA resin (Novagen) and washed with buffer containing 50 mM NaPi (pH 7.5), 500 mM NaCl, 5-20 mM imidazole, 5% (v/v) glycerol and 0.05% (w/v) DDM. GLUT1 (or GLUT2-5, wild-type or mutants) was eluted with buffer A, containing 300 mM imidazole and 0.05% DDM (w/v). To generate DNA for mutant proteins, site-directed mutagenesis was performed on the pFastBac1 plasmid constructs of wild-type proteins and verified by DNA sequencing^37. Mutant proteins were expressed and purified in the same manner as wild-type proteins with no modifications.
Proteoliposomes were generated according to the protocol of^16,38 with minor modifications. Liposomes were made from a 95%/5% mix of soy phosphatidylcholine and cholesterol (Avanti Polar Lipids). Prepared liposomes were destabilized with 4 mM Triton X-100 and mixed with purified protein in a 100:1 (w/w) ratio in 100 mM KPi (pH 7.5), 20% (v/v) glycerol, 200 mM glucose for GLUT1-4 and GLUT1F379H or fructose for GLUT5 (wild-type and H387F mutant) and GLUT2. Detergent was removed by several additions of SM2 BioBeads (BioRad) and incubated overnight at 4° C. […]
For the entrance counterflow transport in proteoliposomes, the assay was started by the addition of 5 μL proteoliposomes solution (OD600 nm ˜30) to 200 μL, assay solution, containing 10 μM ^14C-radiolabeled glucose (for GLUT1 wild-type or F379H mutant and GLUT2-4) or fructose (for GLUT5 wild-type or H387F mutant and GLUT2) (Moravek Biochemicals) in 100 mM KPi buffer at pH 7.5. After one minute (or different specified time points when the time-dependent counter-flow transport activity was measured), the transport was stopped with ice-chilled quench buffer [0.1 M KPi (pH 5.5) and 0.1 M lithium chloride]. […]

With `CS(=O)(=O)c1ccc(Nc2ccc3c(c2)OCO3)c([N+](=O)[O-])c1` [MSNBA, N-[4-(methylsulfonyl)-2-nitrophenyl]-1,3-benzodioxol-5-amine], the “inhibitory activity against GLUT5 in screen of 175 purchased compounds” value (1 mM compound, fructose transport in proteoliposomes) is “inhibitor of GLUT5; also recorded: inhibitory activity”. For the same molecule, the “effect on GLUT5 fructose transport” value (proteoliposomes) was “completely abolished”. Also, the IC50 (proteoliposomes, 10 μM C14-fructose, measured one minute after transport initiation, read-out: IC50 of inhibition of GLUT5 fructose transport) is 100 ± 30 µM.
As to `C=C1[C@@H](C)[C@H]2[C@H](Cc3ccccc3)NC(=O)[C@]23OC(=O)/C=C/[C@H](O)CCC[C@@H](C)C/C=C/[C@H]3[C@@H]1O` [cytochalasin B, reference compound], where the note is “proteoliposomes”, the “effect on GLUT5 fructose transport” value is given as “did not alter”.
Regarding `O=C(CCc1ccc(O)cc1)c1c(O)cc(O)cc1O` [phloretin, reference compound], for the setting “proteoliposomes”, the “effect on GLUT5 fructose transport” value is “did not alter”.
